Measured values reported in ChEMBL document CHEMBL1131933, “Cleavage of the cyclohexyl-subunit of rapamycin results in loss of immunosuppressive activity” (Bioorg Med Chem Lett, 1999).

Tests used:
[1] = biological target: Peptidyl-prolyl cis-trans isomerase FKBP1A (Homo sapiens, UniProt P62942); assay: Compound was tested in vitro for its ability to compete with immobilized FK506 for binding to biotinylated FK506 binding protein 12 in a competitive binding assay
[2] = Compound was tested in vitro for its ability to inhibit the proliferation of the IL-6-dependent hybridoma clone B13-29-15; format: functional
[3] = Compound was tested in vitro for inhibitory activity in the mixed lymphocyte reaction (MLR) assay; format: functional

Sequence of Peptidyl-prolyl cis-trans isomerase FKBP1A (P62942 whole entry): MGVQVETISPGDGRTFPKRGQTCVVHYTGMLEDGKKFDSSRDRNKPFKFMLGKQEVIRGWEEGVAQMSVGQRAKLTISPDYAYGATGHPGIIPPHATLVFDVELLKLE

IC50 [1] [nM]	IC50 [3] [nM]	Structure (SMILES)	IC50 [2] [nM]
3.4	> 380	COC(=O)CC[C@H](CCO)C[C@@H](C)[C@@H]1CC(=O)[C@H](C)/C=C(\C)[C@@H](O)[C@@H](OC)C(=O)[C@H](C)C[C@H](C)/C=C/C=C/C=C(\C)[C@@H](OC)C[C@@H]2CC[C@@H](C)[C@@](O)(O2)C(=O)C(=O)N2CCCC[C@H]2C(=O)O1	200
	1	CO[C@H]1C[C@@H]2CC[C@@H](C)[C@@](O)(O2)C(=O)C(=O)N2CCCC[C@H]2C(=O)O[C@H]([C@H](C)C[C@@H]2CC[C@@H](O)[C@H](OC)C2)CC(=O)[C@H](C)/C=C(\C)[C@@H](O)[C@@H](OC)C(=O)[C@H](C)C[C@H](C)/C=C/C=C/C=C/1C [SIROLIMUS]	1
